{"source": "paper PMC7615343", "about": "“Fluorination Influences the Bioisostery of Myo-Inositol Pyrophosphate Analogs” (Chemistry (Weinheim an der Bergstrasse, Germany), 2023)", "assay": "Anion-exchange HPLC of [33P]-labeled products of PPIP5K2-mediated phosphorylation (relative polarity)", "type": "physicochemical", "details": "PartiSphere SAX column, NH4H2PO4 gradient pH 4.0; elution order 5PA-IP5 < 5PCF2Am-IP5 < 5PCP-IP5 < 5PCF2P-IP5 < 5PP-IP5", "text": "Lastly, we also developed a protocol by which we can infer the relative polarities of each of the analogs. […] As shown above, 5PA-IP5 and the other analogs each bind in potentially productive orientations in which the 1-phosphate is presented to the active site. Therefore, we attempted to radiolabel each of the analogs by incorporation of [33]Pi from [33]P-γ-ATP, with the objective of resolving each of the [33]P-labeled products by anion-exchange HPLC. We reasoned that this assay could provide an empirical comparison of the relative degree of acidity of each reaction product - and more instructively - the substrates themselves. It should be emphasized that this experiment cannot inform on the relative rates of phosphorylation, in large part because the experimental protocol (low mass levels of high-specific radioactivity of [33]P-γ-ATP) are not appropriate for biologically-relevant kinetic determinations.\nFigure 6 HPLC analysis of the products of PPIP5K-mediated phosphorylation of 5PP-IP5 and the various analogs. […]\nKinase activity was studied at 37°C by incubating 700 ng PPIP5K2^1-366 separately with each individual 10 μM test compound and 50 μM ATP plus 60,000 CPM of [^33P-γ]ATP for 30 mins. Assays were quenched with 0.2 volumes of 2 M perchloric acid, neutralized, and [^33P]-labeled products were analyzed by ion-exchange HPLC, using a 4.6 × 125 mm, 5 μm PartiSphere SAX column. […]", "data": [{"compound": "O=P(O)(O)O[C@H]1[C@@H](OP(=O)(O)O)[C@H](OP(=O)(O)O)[C@@H](OP(=O)(O)C(F)(F)P(=O)(O)O)[C@H](OP(=O)(O)O)[C@H]1OP(=O)(O)O", "note": "[5PCF2P-IP5]", "values": [{"measurement": "Relative HPLC elution of phosphorylated product (protonation state / global polarity compared with 5PP-IP5)", "value": "most closely resembles the natural molecule with regards to its protonation state"}]}]}
